In the supplement of paper PMC13380429:

Experiments:
Conditions in all cases: 72 h
HepG2 [1] = test: relative viability EC50 (midpoint between 100% and the lowest measured viability); higher = less toxic
U2OS [2] = test: as above
Caco-2 [3] = test: as above
Calu-3 [4] = test: as above
HepG2 [5] = test: drug sensitivity score (DSS) for viability; higher = more toxic; extreme values may be limits of the assay
Vero E6 [6] = test: as above
U2OS [7] = test: as above
Caco-2 [8] = test: as above
Calu-3 [9] = test: as above
HepG2 [10] = test: cell viability relative to DMSO; higher = less toxic
Vero E6 [11] = test: as above
U2OS [12] = test: as above
Caco-2 [13] = test: as above
Calu-3 [14] = test: as above
Vero E6 [15] = test: relative viability EC50 (midpoint between 100% and the lowest measured viability); higher = less toxic

| Structure (SMILES) | relative viability EC50 (HepG2 [1]) | relative viability EC50 (U2OS [2]) | relative viability EC50 (Caco-2 [3]) | relative viability EC50 (Calu-3 [4]) | drug sensitivity score (HepG2 [5]) | drug sensitivity score (Vero E6 [6]) | drug sensitivity score (U2OS [7]) | drug sensitivity score (Caco-2 [8]) | drug sensitivity score (Calu-3 [9]) | cell viability (HepG2 [10]; 1 nM) | cell viability (HepG2 [10]; 10 nM) | cell viability (HepG2 [10]; 100 nM) | cell viability (HepG2 [10]; 1000 nM) | cell viability (HepG2 [10]; 10000 nM) | cell viability (Vero E6 [11]; 1 nM) | cell viability (Vero E6 [11]; 10 nM) | cell viability (Vero E6 [11]; 100 nM) | cell viability (Vero E6 [11]; 1000 nM) | cell viability (Vero E6 [11]; 10000 nM) | cell viability (U2OS [12]; 1 nM) | cell viability (U2OS [12]; 10 nM) | cell viability (U2OS [12]; 100 nM) | cell viability (U2OS [12]; 1000 nM) | cell viability (U2OS [12]; 10000 nM) | cell viability (Caco-2 [13]; 1 nM) | cell viability (Caco-2 [13]; 10 nM) | cell viability (Caco-2 [13]; 100 nM) | cell viability (Caco-2 [13]; 1000 nM) | cell viability (Caco-2 [13]; 10000 nM) | cell viability (Calu-3 [14]; 1 nM) | cell viability (Calu-3 [14]; 10 nM) | cell viability (Calu-3 [14]; 100 nM) | cell viability (Calu-3 [14]; 1000 nM) | cell viability (Calu-3 [14]; 10000 nM) | relative viability EC50 (Vero E6 [15]) |
| --- | --- | --- | --- | --- | --- | --- | --- | --- | --- | --- | --- | --- | --- | --- | --- | --- | --- | --- | --- | --- | --- | --- | --- | --- | --- | --- | --- | --- | --- | --- | --- | --- | --- | --- | --- |
| Cc1c(-c2ccc(-c3ccccc3F)cc2)nc2ccc(F)cc2c1C(=O)O [brequinar] | 0.563 µM | > 10 µM | > 10 µM | > 10 µM | 8.3 | 6.6 | 0 | 0 | 0 | 105% | 104% | 95.6% | 59.2% | 41.8% | 92.9% | 93.3% | 93.5% | 66.3% | 64.2% | 98.2% | 93.1% | 103% | 103% | 103% | 123% | 93.8% | 93.4% | 105% | 111% | 96.4% | 93.9% | 101% | 106% | 99.6% | – |
| N[C@@H]1[C@H]2CN(c3nc4c(cc3F)c(=O)c(C(=O)O)cn4-c3ccc(F)cc3F)C[C@@H]12 [trovafloxacin] | 3.6 µM | > 10 µM | – | – | 3.4 | 0 | 0 | 3.1 | 2.1 | 115% | 104% | 102% | 106% | 29.9% | 95.7% | 98.8% | 102% | 110% | 98.2% | 101% | 108% | 99.8% | 105% | 89.9% | 95.6% | 122% | 84.7% | 85.5% | 71.5% | 102% | 103% | 92.4% | 97.6% | 64.1% | > 10 µM |
| Oc1cc(O)c2cc(O)c(-c3cc(O)c(O)c(O)c3)[o+]c2c1 [delphinidin] | > 10 µM | > 10 µM | > 10 µM | – | 0 | 0 | 0 | 0.5 | – | 104% | 102% | 103% | 114% | 96.5% | 100% | 98.8% | 98.3% | 92.7% | 97.9% | 103% | 104% | 98.1% | 102% | 99.2% | 101% | 95.5% | 90.8% | 94.6% | 83.4% | – | – | – | – | – | > 10 µM |
| CN(C)CCN(Cc1ccccc1)c1ccccn1 [tripelennamine] | > 10 µM | – | – | – | 1.8 | 0 | – | – | – | 108% | 111% | 101% | 89.7% | 78.9% | 110% | 110% | 105% | 102% | 97.1% | – | – | – | – | – | – | – | – | – | – | – | – | – | – | – | > 10 µM |
| O=C(Cn1ccnc1[N+](=O)[O-])NCc1ccccc1 [benznidazole] | > 10 µM | > 10 µM | > 10 µM | – | 0 | 0 | 0 | 0 | – | 97.3% | 95.9% | 93.7% | 94.4% | 94.2% | 97.3% | 98.5% | 96.4% | 101% | 98.1% | 98% | 97.3% | 92.4% | 90% | 99.8% | 98% | 98.8% | 96.4% | 93.2% | 96% | – | – | – | – | – | > 10 µM |
| O=C(OCC(COC(=O)c1cccnc1)(COC(=O)c1cccnc1)COC(=O)c1cccnc1)c1cccnc1 [niceritrol] | > 10 µM | > 10 µM | > 10 µM | > 10 µM | 0 | 1.5 | 0 | 0 | 0 | 93.7% | 94.1% | 92.7% | 98.2% | 101% | 92.6% | 103% | 96.8% | 96.9% | 73.8% | 102% | 104% | 101% | 101% | 98.8% | 93.9% | 88.4% | 92.7% | 93.3% | 86.9% | 98.5% | 108% | 101% | 106% | 115% | – |
| NC(=O)NC1NC(=O)NC1=O (centres undefined) [allantoin] | > 10 µM | > 10 µM | > 10 µM | – | 0 | 0 | 0 | 0 | – | 114% | 107% | 104% | 99.9% | 95.5% | 108% | 98.5% | 103% | 102% | 102% | 99% | 102% | 99.5% | 103% | 97.8% | 102% | 109% | 96.3% | 100% | 93.5% | – | – | – | – | – | > 10 µM |
